Experimental data from US20260158009A1 (GENZYME CORPORATION, priority 2023, published 2026).

Assays:
[1] = molecular target: T1, hRIPK1 (aa 1-375) fusion protein (Homo sapiens, UniProt Q13546); test: ADP-Glo kinase assay: catalytic activity of RIPK1 (autophosphorylation, conversion of ATP to ADP); assay type: biochemical
T1 construct: hRIPK1 (aa 1-375) fusion protein
T1 sequence (Q13546 1-375): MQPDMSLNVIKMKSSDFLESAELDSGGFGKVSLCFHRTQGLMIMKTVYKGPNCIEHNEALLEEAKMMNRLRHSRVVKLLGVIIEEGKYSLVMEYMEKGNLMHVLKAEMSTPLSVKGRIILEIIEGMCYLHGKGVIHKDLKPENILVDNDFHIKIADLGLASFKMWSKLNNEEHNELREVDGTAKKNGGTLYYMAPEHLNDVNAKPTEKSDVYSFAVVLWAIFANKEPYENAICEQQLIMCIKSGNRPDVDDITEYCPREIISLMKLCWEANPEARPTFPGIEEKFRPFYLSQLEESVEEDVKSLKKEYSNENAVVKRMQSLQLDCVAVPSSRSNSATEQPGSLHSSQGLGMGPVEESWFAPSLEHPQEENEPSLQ
Summary of the method: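 hRIPK1 (aa 1-375) fusion protein (3.6 μg/ml final) was preincubated 30 min at rt with compound (33300-1.69 nM, 1% DMSO), then 50 μM ATP was added for 240 min at rt. ADP from autophosphorylation was measured by ADP-Glo luminescence and curves fitted by nonlinear regression.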

U937 cells = test: Cellular assay in U937 cells: activity of RIPK1 inhibitors on TNFα/zVAD.fmk-induced cell death (necroptosis), CellTiter 96 AQueous (MTS) readout; assay type: cell-based; settings: Homo sapiens, U-937
Summary of the method: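 Necroptosis was measured by viable-cell MTS reduction (4 h, absorbance 490 nm) after overnight (18–24 h) 37° C culture. Cell suspensions of U937 cells carried TNFα (100 ng/ml) plus zVAD.fmk (50 μM) before compound was added. A 10-point curve (10 μM–0.26 nM or 1 μM–0.07 nM) was run in duplicate, normalised to the control lacking TNFα/zVAD.fmk.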

IC50 [1]	Compound	IC50 (U937 cells)
51 nM	N#Cc1cnc2cnn(C[C@H]3CC[C@H](C(=O)N4OCC[C@H]4c4ccccn4)CC3)c2c1 [compound 187, trans-1-[[4-[(3S)-3-(2-pyridyl)isoxazolidine-2-carbonyl]cyclohexyl]methyl]pyrazolo[4,3-b]pyridine-6-carbonitrile]	121 nM
8 nM	NC(=O)c1ccc2c(ccn2C[C@H]2CC[C@H](C(=O)N3OCC[C@H]3c3cnccn3)CC2)c1 [compound 251, trans-1-[[4-[(3S)-3-pyrazin-2-ylisoxazolidine-2-carbonyl]cyclohexyl]methyl]indole-5-carboxamide]	17 nM
60 nM	N#Cc1cc(F)cc([C@@H]2CCON2C(=O)[C@H]2CC[C@H](Cn3cnc4c(F)cc(C(N)=O)cc43)CC2)c1 [compound 80, trans-1-((4-((S)-3-(3-cyano-5-fluorophenyl)isoxazolidine-2-carbonyl)cyclohexyl)methyl)-4-fluoro-1H-benzo[d]imidazole-6-carboxamide]	745 nM
37 nM	Cc1ccc([C@@H]2CCON2C(=O)[C@H]2CC[C@H](Cc3ccc(C4(O)COC4)cc3)CC2)cn1 [compound 348, trans-5 [4-[[4-(3-hydroxyoxetan-3-yl)phenyl]methyl]cyclohexyl]-[(3S)-3-(6-methylpyridin-3-yl)-1,2-oxazolidin-2-yl]methanone]	105 nM
26 nM	Cc1ccc([C@@H]2CCON2C(=O)[C@H]2CC[C@H](Cc3cc(-n4ccnc4C)ncn3)CC2)cc1 [compound 136, trans-[4-[[6-(2-methylimidazol-1-yl)pyrimidin-4-yl]methyl]cyclohexyl]-[(3S)-3-(p-tolyl)isoxazolidin-2-yl]methanone]	26 nM
27 nM	Cc1ncc([C@@H]2CCON2C(=O)[C@H]2CC[C@H](Cc3cc(C)c4ncnn4c3)CC2)cc1F [compound 335, trans-[(3S)-3-(5-fluoro-6-methylpyridin-3-yl)-1,2-oxazolidin-2-yl]-[4-[(8-methyl-[1,2,4]triazolo[1,5-a]pyridin-6-yl)methyl]cyclohexyl]methanone]	11 nM
48 nM	Cc1cncc([C@@H]2CCON2C(=O)[C@H]2CC[C@H](Cc3cc(C)c4nc(C)nn4c3)CC2)n1 [compound 411, trans-[4-[(2,8-dimethyl-[1,2,4]triazolo[1,5-a]pyridin-6-yl)methyl]cyclohexyl]-[(3S)-3-(6-methylpyrazin-2-yl)isoxazolidin-2-yl]methanone]	36 nM
18 nM	Cc1ccc(C[C@H]2CC[C@H](C(=O)N3OCC[C@H]3c3cnccn3)CC2)cc1C(N)=O [compound 138, trans-2-methyl-5-[[4-[(3S)-3-pyrazin-2-ylisoxazolidine-2-carbonyl]cyclohexyl]methyl]benzamide]	25 nM
25 nM	Cc1nn(C[C@H]2CC[C@H](C(=O)N3OCC[C@H]3c3cc(F)cc(F)c3)CC2)c2cc(F)c(C#N)cc12 [compound 68, trans-1-((4-((S)-3-(3,5-difluorophenyl)isoxazolidine-2-carbonyl)cyclohexyl)methyl)-6-fluoro-3-methyl-1H-indazole-5-carbonitrile]	2 nM
19 nM	Cc1nc([C@@H]2CCON2C(=O)[C@H]2CC[C@H](Cn3ncc4cc(C#N)ccc43)CC2)cs1 [compound 202, trans-1-[[4-[(3S)-3-(2-methylthiazol-4-yl)isoxazolidine-2-carbonyl]cyclohexyl]methyl]indazole-5-carbonitrile]	39 nM
27 nM	Cc1cn(C[C@H]2CC[C@H](C(=O)N3OCC[C@H]3c3cc(F)cc(F)c3)CC2)c2cc(C(N)=O)ccc12 [compound 111, trans-1-((4-((S)-3-(3,5-difluorophenyl)isoxazolidine-2-carbonyl)cyclohexyl)methyl)-3-methyl-1H-indole-6-carboxamide]	10 nM
